Experimental findings from ChEMBL document CHEMBL3352310, “A perspective on targeting non-structural proteins to combat neglected tropical diseases: Dengue, West Nile and Chikungunya viruses” (Eur J Med Chem, 2014) are described below.

Peptide text beside a SMILES is read from it. * marks the point of attachment. Bz = O=C(c1ccccc1)*

In experiment [1] the target is T1, Genome polyprotein (West Nile virus, UniProt P06935). The experiment is described as follows: Inhibition of West Nile virus NS2B-NS3 protease.
Experiment [2] deals with Dengue virus. Description: Antiviral activity against Dengue virus assessed as inhibition of viral RNA replication. Type of experiment: functional, organism-based.
The subject of experiment [3] is Dengue virus. Description: Antiviral activity against Dengue virus assessed as inhibition of viral replication. It is filed as functional, organism-based.
In experiment [4] the target is T2, Genome polyprotein (dengue virus type 2, UniProt Q91H74). The experiment is described as follows: Inhibition of dengue virus NS2B-NS3 protease.
The target of experiment [5] is T2, Genome polyprotein. Description: Inhibition of dengue virus-3 NS2B-NS3 protease. Details: species or system dengue virus type 3.
Experiment [6] addresses T2, Genome polyprotein. Description: Inhibition of dengue virus-1 NS2B-NS3 protease. Set-up: species or system dengue virus type 1.
Experiment [7] deals with T2, Genome polyprotein. Description: Inhibition of dengue virus-4 NS2B-NS3 protease. Details: species or system dengue virus type 4.
Experiment [8] concerns the target Genome polyprotein (dengue virus type 2, UniProt P12823). The experiment is described as follows: Inhibition of dengue virus-2 NS2B-NS3 protease.
For experiment [9], the target named is T1, Genome polyprotein. Description: Non-competitive inhibition of West Nile virus NS2B-NS3 protease.
Experiment [10] can be described thus: Inhibition of Dengue virus-3 N7-methyltransferase. Set-up: species or system dengue virus type 3.
Experiment [11] can be described thus: Inhibition of Dengue virus-3 2'-O-methyltransferase. Set-up: species or system dengue virus type 3.
A short description of experiment [12]: Inhibition of Dengue virus RNA-directed RNA polymerase NS5.
The subject of experiment [13] is Dengue virus. The experiment is described as follows: Antiviral activity against Dengue virus. It is filed as functional, organism-based.
Experiment [14] has as its system dengue virus type 1. The experiment is described as follows: Antiviral activity against Dengue virus 1. It is filed as functional, organism-based.
The subject of experiment [15] is dengue virus type 3. The experiment is described as follows: Antiviral activity against Dengue virus 3. Type of experiment: functional, organism-based.
The subject of experiment [16] is dengue virus type 4. The experiment is described as follows: Antiviral activity against Dengue virus 4. It is filed as functional, organism-based.
In experiment [17] the test system is dengue virus type 2. Description: Antiviral activity against Dengue virus 2. Type of experiment: functional, organism-based.
For experiment [18], the system named is Chikungunya virus. Description: Antiviral activity against Chikungunya virus assessed as inhibition of viral replication. It is filed as functional.

One may read the Ki as a measure of affinity in units of concentration, obtained from inhibition or displacement. The molecule `CC(C)C[C@@H]1NC(=O)[C@H](CCCN)NC(=O)[C@H](C(C)C)NC(=O)[C@H](Cc2ccc(O)cc2)N[C@@H](CCC(=O)O)C(=O)N[C@@H](CC(N)=O)C(=O)[C@@H](Cc2ccccc2)NC(=O)[C@H](Cc2ccccc2)NC(=O)[C@@H]2CCCN2C(=O)[C@@H](Cc2ccccc2)NC1=O` returned a Ki in experiment [1] of 2000 nM.
Same read-out and setting: the result for `N=C(N)N[C@H]1CC[C@H](CNC(=O)[C@H](CCCCN)NC(=O)[C@H](CCCCN)NC(=O)Cc2ccc(Cl)c(Cl)c2)CC1` reads 130 nM.
The term EC50 denotes the concentration at which the effect is half-maximal. As to `CN1CCN(CCOc2cc(OC3CCOCC3)c3c(Nc4c(Cl)ccc5c4OCO5)ncnc3c2)CC1` [SARACATINIB], the EC50 in experiment [2] came to 1600 nM.
By IC50 is commonly meant the concentration at which inhibition is half-maximal. For `O=c1c(OC2O[C@H](CO)[C@@H](O)[C@H](O)[C@H]2O)c(-c2ccc(OC3O[C@H](CO)[C@@H](O)[C@H](O)[C@H]3O)c(O)c2)oc2cc(O)cc(O)c12` (stereo partly drawn), the IC50 in [3] came to 1700 nM.
Take `Cc1ccc(C(NN=C(N)N)[PH](=O)O)cc1` (stereo not drawn): in [4], the IC50 was 14000 nM.
Turning to `N=C(N)Nc1ccc(O[C@H]2C[C@@H](Oc3ccc(NC(=N)N)cc3NC(=N)N)[C@H](NC(=N)N)C[C@@H]2NC(=N)N)c(NC(=N)N)c1`, the IC50 in [5], in experiment [6], in [7] and in experiment [8] was 1000 nM each time.
With `N#Cc1ccc(OC(=O)c2ccc(NC(=N)N)cc2)cc1`, in experiment [8], the IC50 was found to be 37900 nM and the affinity corresponds to a Ki of 31100 nM.
`Cc1ccc2c(c1)-c1c(=O)nc(SCc3ccccc3)[nH][n+]1C(c1ccc(Cl)cc1)N2` (stereo not drawn): in experiment [9], the IC50 is 5410 nM.
On to `C[C@@H]1O[C@@H](OC[C@H]2O[C@@H](Oc3c(-c4ccc(O)c(O)c4)oc4cc(O)cc(O)c4c3=O)[C@H](O)[C@@H](O)[C@@H]2O)[C@H](O)[C@H](O)[C@H]1O` [RUTIN], for which the IC50 in experiment [3] stood at 1700 nM.
Molecule `CCc1ccc(NC(=O)CSc2nc3ccc(NC(=O)CSc4nnc(-c5ccccc5)n4C)cc3s2)cc1` yielded an IC50 in experiment [1] of 3400 nM.
On to `N=C(N)Nc1ccc(OC(=O)c2ccc(NC(=N)N)cc2)cc1`, for which, in [8], the IC50 worked out at 7700 nM and the Ki is 2000 nM.
For the molecule `CCCSc1nnc(N2C(=O)C(O)=C(C(=O)c3ccc(Cl)cc3)C2c2ccc(Cl)cc2)s1` (stereo not drawn), the half-inhibitory concentration (IC50) in experiment [9] is 2200 nM.
Take `NC(CCSC[C@H]1O[C@@H](n2ccc3c(NCc4cccc(Cl)c4)ncnc32)C(O)C1O)C(=O)O` (stereo partly drawn): the Ki in experiment [10] amounted to 820 nM; in experiment [11], 170 nM.
Regarding `N=C(N)NCCC[C@H](NC(=O)[C@H](CCCCN)NC(=O)[C@H](CCCCN)NC(=O)c1ccccc1)C(=O)O` (Bz-Lys-Lys-Arg-OH), the midpoint of inhibition in experiment [1], the IC50, lay at 420 nM.
With `COc1ccc(-c2coc3c(-c4cc(-c5cc(=O)c6c(O)cc(O)cc6o5)ccc4O)c(O)cc(O)c3c2=O)cc1`, the IC50 in experiment [12] turned out to be 750 nM.
Take `O=c1c(O)c(-c2ccc(O[C@@H]3O[C@H](CO)[C@@H](O)[C@H](O)[C@H]3O)c(O)c2)oc2cc(O)cc(O)c12` [SPIRAEOSIDE]: in experiment [3], the IC50 worked out at 1700 nM.
On the same count and under the same terms, the result for `O=c1c(O[C@@H]2O[C@@H](CO)[C@H](O)[C@H]2O)c(-c2ccc(O)c(O)c2)oc2cc(O)cc(O)c12` [AVICULARIN] reads 1700 nM.
Regarding `Cc1nc(Nc2ncc(C(=O)Nc3c(C)cccc3Cl)s2)cc(N2CCN(CCO)CC2)n1` [DASATINIB], the half-maximal effective concentration (EC50) in experiment [2] came out at 110 nM.
Take `C=C(C)[C@@H]1CC[C@]2(C(=O)O)CC[C@]3(C)[C@H](CC[C@@H]4[C@@]5(C)CC[C@H](O)C(C)(C)[C@@H]5CC[C@]43C)[C@@H]12` [BETULINIC ACID]: the IC50 in [3] is 1700 nM.
Turning to `NC(=O)c1ncn([C@@H]2O[C@H](CO)[C@@H](O)[C@H]2O)n1` [RIBAVIRIN], the EC50 in [13] was 49000 nM.
Take `Cc1ccc(S(=O)(=O)Nc2cc(SCC(=O)O)c(O)c3ccccc23)cc1[N+](=O)[O-]`: the EC50 was 970 nM in [14], 2430 nM in [15], 740 nM in experiment [16] and 980 nM in experiment [17].
Regarding `C[C@@H]1O[C@@H](Oc2c(-c3ccc(O)c(O)c3)oc3cc(O)cc(O)c3c2=O)[C@H](O)[C@H](O)[C@H]1O` [QUERCITRIN], the IC50 in experiment [3] is 1700 nM.
In experiment [1], `N=C(N)NCCC[C@H](NC(=O)[C@H](CCCCN)NC(=O)[C@H](CCCCN)NC(=O)C1CC1)C(=O)O` had an IC50 of 380 nM.
`O=c1cc(-c2ccc(Oc3c(O)cc4occ(-c5ccc(O)cc5)c(=O)c4c3O)cc2)oc2cc(O)cc(O)c12`: in [12], the IC50 stood at 260 nM.
Turning to `CCOc1ccc(/C=N/NC(=O)/C=C/c2ccc(C(C)(C)C)cc2)cc1OCC`, the IC50 in [18] was 3200 nM.
For the molecule `NC(=O)[C@H](Cc1c[nH]c2ccccc12)NC(=O)[C@H](CS)NC(=O)[C@H](Cc1ccc(O)cc1)NC(=O)[C@@H](N)Cc1c[nH]c2ccccc12` (H-WYCW-NH2), the Ki in experiment [5] came to 24400 nM; in [6], 4200 nM; in experiment [7] it was 11200 nM; in experiment [8], 4800 nM.
`COc1cc2c(cc1OC)-c1cc3ccc(OC)c(OC)c3c[n+]1CC2` [PALMITINE] came in with an IC50 in experiment [9] of 96000 nM.
Turning to `O=C1c2c(O)ccc([N+](=O)[O-])c2C(=O)c2c([N+](=O)[O-])ccc(O)c21`, the EC50 in experiment [14] was determined as 5960 nM; in [15], 3080 nM; in [16], 880 nM; in [17], 440 nM.
With `Cc1cc(C)c2c(c1)OC(c1ccc(N(C)C)cc1)CC2=O` (stereo not drawn), in experiment [4], the IC50 is 121000 nM.
Still for that read-out and setting: the result for `O=c1cc(-c2ccccc2)oc2ccc(-c3cn[nH]n3)cc12` reads 69000 nM.
In experiment [1], `Oc1c(C(Nc2nccs2)c2cccc(OCc3ccccc3)c2)ccc2cccnc12` (stereo not drawn) showed an IC50 of 2010 nM.
For the molecule `O=c1c(O[C@@H]2O[C@H](CO)[C@H](O)[C@H](O)[C@H]2O)c(-c2ccc(O)c(O)c2)oc2cc(O)cc(O)c12` [HYPEROSIDE], the IC50 in [3] stood at 1700 nM.
The molecule `COc1ccc(-c2nnc(C(Cc3ccccc3)n3sc4ccccc4c3=O)o2)cc1` (stereo not drawn) yielded an IC50 in experiment [4] of 3750 nM.
